From paper PMC7140498, “Predicting liver cytosol stability of small molecules” (Journal of Cheminformatics, 2020)

test: Metabolic stability assay (substrate depletion) in human liver cytosol fractions; conditions: both, human, cytosol, pH 7.4, t1/2 [min] (Right), external validation, sheet Human, right compound
Description: Our assay (384-well format) consisted of two parts; a robotic system for incubation and sample clean up and an integrated LC/MS method to calculate the percent remaining of parent compound. Briefly, each reaction mixture (110 μL) consisted of a test compound (1 μM) and either human or mouse cytosol fractions (2 mg/mL) in phosphate buffer (100 mM) at pH 7.4. Samples were incubated in 384-well plates at 37 °C for 0, 5, 10, 15, 30 and 60 min. Sample analysis and t1/2 calculations were performed using a previously described method [15]. […] A set of control compounds for low and high cytosolic stability were routinely run in each plate.

| Compound | half-life at 1 μM [h] |
| --- | --- |
| CN1CCN(C(=O)Cc2cccn2-c2ccc(F)cc2)CC1 [CN1CCN(C(=O)Cc2cccn2-c2ccc(F)cc2)CC1] | > 2 |

same assay, conditions: both, human, liver cytosol fractions, pH 7.4, t1/2 [min] (Left), external validation, sheet Human, left compound

| Compound | half-life at 1 μM [h] |
| --- | --- |
| O=C(c1ccsc1)N1CCC(Oc2cccc(F)c2)C1 (stereo not drawn) [O=C(c1ccsc1)N1CCC(Oc2cccc(F)c2)C1] | 1.38 |
| N#Cc1cccc(CN2CC(COc3ccccc3)C3(C2)CN(c2ccccc2)C3)c1 (stereo not drawn) | 0.693 |
| CC(C)(C)c1coc([C@@H]2COCCN2Cc2cccc(C#N)c2)n1 | 0.943 |
| CN1c2cc(C(=O)Nc3ccc(C#N)cc3)ccc2C(=O)N2CCCCC21 (stereo not drawn) | > 2 |

same assay, conditions: both, human, liver cytosol fractions, pH 7.4, t1/2 [min] (Right), external validation, sheet Human, right compound

| Compound | half-life at 1 μM [h] |
| --- | --- |
| COc1ccc(CN2CC(Oc3ccc(F)cc3C)C2)cc1 [COc1ccc(CN2CC(Oc3ccc(F)cc3C)C2)cc1] | 0.35 |
| CN(CC1CCOC1)C(=O)Nc1ccccc1 (stereo not drawn) [CN(CC1CCOC1)C(=O)Nc1ccccc1] | > 2 |
| Cc1nn2c(c1-c1ccccc1Oc1ccccc1)N(Cc1ccc(C(=O)O)cc1)CCC2 | > 2 |
| O=C(c1ccoc1)N1CCC(Oc2ccccc2)C1 (stereo not drawn) [O=C(c1ccoc1)N1CCC(Oc2ccccc2)C1] | > 2 |
| COc1cccc(-c2cn3c(n2)N(C(=O)c2ccoc2)CCC3)c1 | 1.86 |
| COc1cccc(-c2cn3c(n2)N(C(=O)c2ccco2)CCC3)c1 | 0.993 |
| CCN1CCN(C(=O)c2nc3sccn3c2-c2cccc(OC)c2)CC1 | > 2 |
| COc1cccc(-c2c(C(=O)Nc3ccc(C)cc3)nc3sccn23)c1 | 1.55 |
| Cc1cc2cc(-c3c(C)noc3C)nc(Nc3ccccc3)c2o1 [Cc1cc2cc(-c3c(C)noc3C)nc(Nc3ccccc3)c2o1] | 0.593 |
| COc1ccc(CN2CCC(N3Cc4cccn4C3=O)CC2)cc1 [COc1ccc(CN2CCC(N3Cc4cccn4C3=O)CC2)cc1] | > 2 |
| COc1cccc(CN2CCOC[C@H](O)C2)c1 [COc1cccc(CN2CCOC[C@H](O)C2)c1] | 0.47 |
| COc1cccc(-c2c(C(=O)N3CCCCC3)nc3sccn23)c1 [COc1cccc(-c2c(C(=O)N3CCCCC3)nc3sccn23)c1] | 1.9 |
| CC(C)CN1C(=O)c2cccn2CC1C(=O)N1CCN(C)CC1 (stereo not drawn) [CC(C)CN1C(=O)c2cccn2CC1C(=O)N1CCN(C)CC1] | 1.79 |
| COc1cccc(-c2c(C(=O)N3CCOCC3)nc3sccn23)c1 [COc1cccc(-c2c(C(=O)N3CCOCC3)nc3sccn23)c1] | > 2 |
| CN1CCC(OC2CCN(C(=O)c3ccccc3)CC2)CC1 [CN1CCC(OC2CCN(C(=O)c3ccccc3)CC2)CC1] | > 2 |
| COc1cccc(CN2CCC3(CC2)OCCN(C)C3=O)c1 [COc1cccc(CN2CCC3(CC2)OCCN(C)C3=O)c1] | > 2 |
| COc1ccc(CN2CC[C@H](c3nnc(C)o3)C2)cc1 [COc1ccc(CN2CC[C@H](c3nnc(C)o3)C2)cc1] | > 2 |
| COc1cccc(-c2c(C(=O)NC3CC3)nc3sccn23)c1 [COc1cccc(-c2c(C(=O)NC3CC3)nc3sccn23)c1] | > 2 |
| COc1ccc(CN2CCC3(C2)NC(=O)c2ccccc2O3)cc1 (stereo not drawn) [COc1ccc(CN2CCC3(C2)NC(=O)c2ccccc2O3)cc1] | > 2 |
| CC1(c2ccccc2)N(Cc2ccccc2)C(=O)OC12CCN(Cc1ccc(C(=O)O)cc1)CC2 (stereo not drawn) | > 2 |
| COc1ccc(C(=O)N2CCC3(CCC3OC)CC2)cc1 (stereo not drawn) [COc1ccc(C(=O)N2CCC3(CCC3OC)CC2)cc1] | 1.17 |
| COc1cccc(CN2CC[C@H](c3nc4ccccc4[nH]3)C2)c1 | > 2 |

| Compound | half-life at 1 μM [h] |
| --- | --- |
| O=C(N1CCN(S(=O)(=O)c2ccccc2)CC1)N1CC2CC(C1)[C@H]1CCCC(=O)N1C2 (stereo partly drawn) | > 2 |
| COc1ccc(CN2CC(Oc3ccc(F)c(C)c3)C2)cc1 [COc1ccc(CN2CC(Oc3ccc(F)c(C)c3)C2)cc1] | 0.36 |
| CN(Cc1ccccc1)C1CCOc2ccccc21 (stereo not drawn) [CN(Cc1ccccc1)C1CCOc2ccccc21] | 0.127 |
| COc1ccc(CN2CCC(N3CCNC3=O)CC2)cc1 [COc1ccc(CN2CCC(N3CCNC3=O)CC2)cc1] | > 2 |
| COc1ccccc1CN1CCC2(CC1)CC(O)CCO2 (stereo not drawn) [COc1ccccc1CN1CCC2(CC1)CC(O)CCO2] | > 2 |
| COc1ccc(CN2CCC(N3CCOC3=O)CC2)cc1 [COc1ccc(CN2CCC(N3CCOC3=O)CC2)cc1] | > 2 |
| CCOCCOC1CCN(C(=O)Nc2ccccc2)CC1 [CCOCCOC1CCN(C(=O)Nc2ccccc2)CC1] | > 2 |
| O=C(c1cccs1)N1CCC(Oc2ccccc2)C1 (stereo not drawn) [O=C(c1cccs1)N1CCC(Oc2ccccc2)C1] | 0.638 |
| COc1ccc(CN2CCC3(COc4ccccc4C(=O)N3)C2)cc1 (stereo not drawn) [COc1ccc(CN2CCC3(COc4ccccc4C(=O)N3)C2)cc1] | 0.578 |
| O=C(O)c1ccc(CN2CCOC[C@H]2c2nc(-c3ccc(F)cc3)c[nH]2)cc1 | > 2 |
| CNC(=O)[C@@H]1CN(C(=O)c2cccc(OC)c2)C[C@H]1COC | > 2 |
| COc1cccc(CN2CC[C@H](c3nnc(-c4ccco4)o3)C2)c1 | 1.97 |
| COc1ccc(CN2CC(Oc3ccc(OC)cc3)C2)cc1 [COc1ccc(CN2CC(Oc3ccc(OC)cc3)C2)cc1] | > 2 |
| COc1ccc(CN2CC[C@@](C)(O)[C@H](N3CCCC3)C2)cc1 | > 2 |
| COc1ccc(CN2CC(N3CCc4ccccc43)C2)cc1 [COc1ccc(CN2CC(N3CCc4ccccc43)C2)cc1] | 1.37 |
| COc1ccc(CN2CCC3(CC2)CC(=O)c2ccccc2O3)cc1 [COc1ccc(CN2CCC3(CC2)CC(=O)c2ccccc2O3)cc1] | > 2 |
| COc1ccc(C(=O)N2C[C@@H](CO)[C@H](N(C)C)C2)cc1 | > 2 |
| COCCNC(=O)c1nc2sccn2c1-c1cccc(OC)c1 [COCCNC(=O)c1nc2sccn2c1-c1cccc(OC)c1] | > 2 |
| COCCOC1CCN(C(=O)Nc2ccccc2)CC1 [COCCOC1CCN(C(=O)Nc2ccccc2)CC1] | > 2 |
| COc1ccc(CN2CC(Oc3ccc(F)c(F)c3)C2)cc1 [COc1ccc(CN2CC(Oc3ccc(F)c(F)c3)C2)cc1] | 0.5 |
| COc1cccc(-c2cn3c(n2)N(C(=O)c2cccs2)CCC3)c1 | > 2 |

same assay, conditions: both, human, liver cytosol fractions, pH 7.4, t1/2 [min] (left), in-house library pair, human transforms, left compound

| Compound | half-life at 1 μM [h] |
| --- | --- |
| O=C(c1ccsc1)N1CCC(Oc2cccc(F)c2)C1 (stereo not drawn) [O=C(c1ccsc1)N1CCC(Oc2cccc(F)c2)C1] | 1.38 |
| N#Cc1cccc(CN2CC(COc3ccccc3)C3(C2)CN(c2ccccc2)C3)c1 (stereo not drawn) | 0.693 |
| CC(C)(C)c1coc([C@@H]2COCCN2Cc2cccc(C#N)c2)n1 | 0.943 |

same assay, conditions: external validation, sheet Human, left compound

| Compound | t1/2 [min] (Left) |
| --- | --- |
| N#Cc1cccc(CN2CCOC[C@H]2c2nc(-c3ccc(F)cc3)c[nH]2)c1 | 94.7 |
| Cc1cc(OC2CN(Cc3ccc(C#N)cc3)C2)ccc1F [Cc1cc(OC2CN(Cc3ccc(C#N)cc3)C2)ccc1F] | 43.8 |
| Fc1cccc(-c2cnc(Nc3cncnc3)c3c2CCO3)c1 [Fc1cccc(-c2cnc(Nc3cncnc3)c3c2CCO3)c1] | 9.6 |
| Cc1ccc(NC(=O)c2nc3sccn3c2-c2cccc(C#N)c2)cc1 | 17.4 |
| O=c1c2nc(Nc3cccc(F)c3)ccc2ncn1-c1cccnc1 [O=c1c2nc(Nc3cccc(F)c3)ccc2ncn1-c1cccnc1] | 96.4 |
| N#Cc1ccc(CN2CCC3(COc4ccccc4C(=O)N3)C2)cc1 (stereo not drawn) | 38.4 |
| N#Cc1cccc(-c2c(C(=O)NC3CC3)nc3sccn23)c1 [N#Cc1cccc(-c2c(C(=O)NC3CC3)nc3sccn23)c1] | 95.2 |
| N#Cc1cccc(-c2cn3c(n2)N(C(=O)c2ccco2)CCC3)c1 | 36.7 |
| N#Cc1ccc(CN2CCC(N3CCNC3=O)CC2)cc1 [N#Cc1ccc(CN2CCC(N3CCNC3=O)CC2)cc1] | 93.2 |
| Cc1cc2cc(-c3c(C)noc3C)nc(Nc3cccc(F)c3)c2o1 | 8.2 |
| Fc1cccc(Nc2ncc(-c3cccnc3)c3c2OCC3)c1 [Fc1cccc(Nc2ncc(-c3cccnc3)c3c2OCC3)c1] | 76.6 |
| O=C(Nc1cnc(-c2ccccc2)nc1)c1cccc(F)c1 [O=C(Nc1cnc(-c2ccccc2)nc1)c1cccc(F)c1] | 52 |
| COc1cncc(Nc2ncc(-c3cccc(F)c3)c3c2OCC3)c1 [COc1cncc(Nc2ncc(-c3cccc(F)c3)c3c2OCC3)c1] | 80.3 |
| N#Cc1cccc(-c2c(C(=O)N3CCCCC3)nc3sccn23)c1 | 103.4 |
| N#Cc1ccc(CN2CC(Oc3ccc(F)c(F)c3)C2)cc1 [N#Cc1ccc(CN2CC(Oc3ccc(F)c(F)c3)C2)cc1] | 71.4 |
| Cn1ccc(NC(=O)c2ccc(-c3ncc4cnc(-c5cccc(F)c5)cn34)cc2)n1 | 33.2 |
| O=C(NCCc1c[nH]cn1)c1ccc(-c2ncc3cnc(-c4cccc(F)c4)cn23)cc1 | 14.9 |
| Cc1ccc(-c2noc([C@@H]3Cc4[nH]cnc4CN3Cc3cccc(C#N)c3)n2)cc1 | 63.4 |
| O=C(c1ccoc1)N1CCC(Oc2cccc(F)c2)C1 (stereo not drawn) [O=C(c1ccoc1)N1CCC(Oc2cccc(F)c2)C1] | 70.5 |
| CN(Cc1cccc(F)c1)C1CCOc2ccccc21 (stereo not drawn) [CN(Cc1cccc(F)c1)C1CCOc2ccccc21] | 8.6 |
| O=C(c1cccs1)N1CCC(Oc2cccc(F)c2)C1 (stereo not drawn) [O=C(c1cccs1)N1CCC(Oc2cccc(F)c2)C1] | 17.4 |
| N#Cc1ccc(CN2C[C@@H](CO)[C@H](c3ccncc3)C2)cc1 | 107.1 |
| Cc1ccccc1-c1n[nH]c2ncc(-c3cccc(F)c3)nc12 [Cc1ccccc1-c1n[nH]c2ncc(-c3cccc(F)c3)nc12] | 49 |
| N#Cc1cccc(CN2C[C@@H](CO)[C@H](c3ccccn3)C2)c1 | 57.4 |
| N#Cc1cccc(CN2CCOC[C@H](O)C2)c1 [N#Cc1cccc(CN2CCOC[C@H](O)C2)c1] | 51.1 |
| COC1CCC12CCN(C(=O)c1ccc(C#N)cc1)CC2 (stereo not drawn) [COC1CCC12CCN(C(=O)c1ccc(C#N)cc1)CC2] | 79.2 |
| CCOc1cc(=O)n2c(c1C(=O)Nc1ccc(C#N)cc1)CCCC2 | 101.4 |
| Cc1noc(C)c1-c1cc(-c2cccc(F)c2)cn2cncc12 [Cc1noc(C)c1-c1cc(-c2cccc(F)c2)cn2cncc12] | 90 |
| COc1ccc(-c2n[nH]c3ncc(-c4cccc(F)c4)nc23)c(C)c1 | 75.8 |
| Cc1cc(F)ccc1OC1CN(Cc2ccc(C#N)cc2)C1 [Cc1cc(F)ccc1OC1CN(Cc2ccc(C#N)cc2)C1] | 35.4 |
